Read-outs that look alike come from different tables or passages of the source.
Legend:
[1] = tested on: P. falciparum Dd2 (PfLuc) line expressing firefly luciferase, asexual blood stage; assay: microbe, parasite or virus in culture; type: cell-based, Plasmodium falciparum; conditions: Plasmodium falciparum
[2] = tested on: P. falciparum Dd2; assay: SYBR green I asexual blood stage proliferation assay (96 h); type: cell-based, Plasmodium falciparum; conditions: for IC50 / Emax: Plasmodium falciparum
[3] = DD2, read-out: CDD P. falciparum Luciferase ABS 11-pt Reconfirmation Dose Response (48hr): IC50 (μM), 11-pt dose response, 48hr
[4] = DD2, 8-pt dose response, 96hr, read-out: CDD P. falciparum Luciferase ABS 8-pt Reconfirmation Dose Response (96hr): IC50
[5] = DD2, 8-pt dose response, 96hr, read-out: CDD P. falciparum Luciferase ABS 8-pt Reconfirmation Dose Response (96hr): Maximum inhibition (%)
[6] = DD2, 11-pt dose response, 48hr, read-out: CDD P. falciparum Luciferase ABS 11-pt Reconfirmation Dose Response (48hr): Maximum inhibition (%)
[7] = DD2, 11-pt dose response, 96hr, read-out: CDD P. falciparum Luciferase ABS 11-pt Reconfirmation Dose Response (96hr): IC50
[8] = DD2, 11-pt dose response, 96hr, read-out: CDD P. falciparum Luciferase ABS 11-pt Reconfirmation Dose Response (96hr): Maximum inhibition (%)
[9] = DD2, Sybr Green I, 11-pt dose response, 96hr, read-out: CDD P. falciparum Sybr Green I ABS 11-pt Reconfirmation Dose Response (96hr): IC50
[10] = DD2, Sybr Green I, 11-pt dose response, 96hr, read-out: CDD P. falciparum Sybr Green I ABS 11-pt Reconfirmation Dose Response (96hr): Maximum inhibition (%)
[11] = 96 h incubation, Dd2 luciferase, read-out: 96 hour Pfluc IC50
[12] = DD2, read-out: P. falciparum Luciferase ABS 11-pt Reconfirmation Dose Response (48hr): IC50, 11-pt dose response, 48hr
[13] = DD2, 8-pt dose response, 96hr, read-out: P. falciparum Luciferase ABS 8-pt Reconfirmation Dose Response (96hr): IC50
[14] = DD2, 8-pt dose response, 96hr, read-out: P. falciparum Luciferase ABS 8-pt Reconfirmation Dose Response (96hr): Maximum inhibition (%)
[15] = DD2, 11-pt dose response, 48hr, read-out: P. falciparum Luciferase ABS 11-pt Reconfirmation Dose Response (48hr): Maximum inhibition (%)
[16] = DD2, 11-pt dose response, 96hr, read-out: P. falciparum Luciferase ABS 11-pt Reconfirmation Dose Response (96hr): IC50
[17] = DD2, 11-pt dose response, 96hr, read-out: P. falciparum Luciferase ABS 11-pt Reconfirmation Dose Response (96hr): Maximum inhibition (%)
[18] = DD2, 11-pt dose response, 96hr, read-out: P. falciparum Sybr Green I ABS 11-pt Reconfirmation Dose Response (96hr): IC50
[19] = DD2, 11-pt dose response, 96hr, read-out: P. falciparum Sybr Green I ABS 11-pt Reconfirmation Dose Response (96hr): Maximum inhibition (%)

SMILES | IC50 [1, 3] [µM] | IC50 [1, 4] [µM] | Emax [1, 5] [%] | Emax [1, 6] [%] | IC50 [1, 7] [µM] | Emax [1, 8] [%] | IC50 [2, 9] [nM] | Emax [2, 10] [%] | also measured
CC(O)CN1CCC(CNCc2cccc(Br)c2)CC1 (stereo not drawn) [DDD01304344] | 3.63 | 0.58 | 91.2 | 92.1 | 1.64 | 98.2 | 2060 | 93.8 | –
CC(NCC1CCN(CCO)CC1)c1ccc(C(F)(F)F)cc1 (stereo not drawn) [DDD01073719] | 4.64 | 0.52 | 92.5 | – | 0.614 | 98.9 | 2650 | 92.8 | IC50 [1, 11]: 0.61 µM
CN1CCC(C2CCN(Cc3cccc(-n4cccn4)c3)CC2)C1 (stereo not drawn) [DDD01255349] | 0.818 | 0.65 | 93.2 | 97.1 | 0.46 | 100 | 2050 | 94.8 | –
CC(C)(C)c1nccc(C2(c3ccccc3Cl)CCNCC2)n1 [DDD01256872] | – | – | – | – | – | – | – | – | IC50 [1, 12]: 5.56 µM; IC50 [1, 13]: 2.03 µM; Emax [1, 14]: 78.8%; Emax [1, 15]: 91.9%; IC50 [1, 16]: 1.22 µM; Emax [1, 17]: 98.3%; IC50 [2, 18]: 1710 nM; Emax [2, 19]: 74.4%
NCC1[C@H]2CN(Cc3cccc(Cl)c3)C[C@@H]12 (stereo partly drawn) [DDD01029240] | 2.68 | 0.55 | 93.8 | 85 | 1.2 | 99 | 1890 | 90.7 | –
CN(Cc1ncc[nH]1)c1nc(-c2ccccn2)nc2c1CCNCC2 [DDD01254777, CN(Cc1ncc[nH]1)c1nc(nc2CCNCCc12)-c1ccccn1] | – | – | – | – | – | – | – | – | IC50 ([1]; DD2, read-out: CDD P. falciparum Luc 11pt dose response (96hr, n=2): IC50 (μM), 96hr, 11-point, n=2): 0.214 µM; IC50 ([1]; DD2, read-out: CDD P. falciparum Luciferase 11pt dose response (48hr, n=2): IC50 (μM), 48hr, 11-point, n=2): 10.2 µM; Emax ([1]; DD2, 48hr, 11-point, read-out: CDD P. falciparum Luciferase ABS 11-pt Reconfirmation Dose Response (48hr): Maximum inhibition (%)): 65.1%; Emax ([1]; DD2, 96hr, 11-point, read-out: CDD P. falciparum Luciferase ABS 11-pt Reconfirmation Dose Response (96hr): Maximum inhibition (%)): 94.2%; IC50 [1, 11]: 0.21 µM; CDD P. falciparum Sybr Green I ABS Dd2 Dose Response: Maximum measured (%) ([2]; Dd2, 96 h): 65.7%; IC50 ([2]; DD2, 96 h, read-out: CDD P. falciparum Sybr Green I ABS Dd2 Dose Response: IC50): > 4160 nM
Cc1cccc(NC(=O)c2cccc(OCc3nnnn3C)c2)n1 [DDD01038630] | 0.916 | 0.34 | 94.9 | 99.2 | > 0.462 | 99.5 | 2540 | 99.2 | –
CN1CCC(N(C)c2ccccc2CNCc2ccco2)CC1 [DDD01074928] | 1.71 | 0.27 | 92.9 | 80.4 | 0.211 | 97.1 | 1100 | 94.3 | IC50 [1, 11]: 0.21 µM
CCC1CN(CC(=O)NCCN2CCCCC2)c2ccccc2S1 (stereo not drawn) [DDD01025850] | 5.56 | 1.1 | 87.2 | 55.4 | 2.56 | 83.2 | 7990 | 74.7 | –
c1cc(-c2n[nH]cc2-c2ccnc(N3CCCCCC3)n2)ccn1 [DDD01235864] | > 4.16 | 0.00697 | 93.5 | 62.2 | 0.0308 | 93.5 | 5.64 | – | IC50 [1, 11]: 0.03 µM
CS(=O)(=O)CCCNC1(c2cccc(Cl)c2)CCCC1 [DDD01078792] | – | – | – | – | – | – | – | – | IC50 [1, 12]: > 12.5 µM; IC50 [1, 13]: 1.66 µM; Emax [1, 14]: 85%; Emax [1, 15]: 68.8%; IC50 [1, 16]: 3.02 µM; Emax [1, 17]: 88%; IC50 [2, 18]: > 4160 nM; Emax [2, 19]: 73.6%
Cc1cnn(CCNCc2nccn2Cc2ccccc2)c1 [DDD01062085] | 10.4 | 0.53 | – | 75 | 1.22 | 95.2 | > 12500 | 51.3 | –
Cc1cccnc1[C@H](C)Nc1nc(-c2cccnc2)nc2c1CNC2 [DDD01248607] | – | – | – | – | – | – | – | – | IC50 [1, 12]: 1.59 µM; IC50 [1, 13]: 1.6 µM; Emax [1, 14]: 92.2%; Emax [1, 15]: 79.2%; IC50 [1, 16]: 1.37 µM; Emax [1, 17]: 99.4%; IC50 [2, 18]: 3910 nM; Emax [2, 19]: 91.2%
CC1(C)CN(C(CNC2=NCCN2)c2ccc(Cl)cc2)CCO1 (stereo not drawn) [DDD01066238] | 0.786 | 0.55 | 80.3 | 64.5 | 3.52 | 81.2 | 3750 | 50.5 | –
Cc1cn2c(n1)C(CNCc1ccc(C)s1)CCC2 (stereo not drawn) [DDD01079169] | 1.64 | 0.63 | 93.4 | 93.3 | 0.471 | 100 | 2250 | 83.8 | –
CNC(=O)CCN(C)CC1(c2ccc(Br)cc2)CC1 [DDD01064880] | 5.21 | 0.54 | – | 64.4 | 4.63 | 88.9 | 6590 | 73.3 | –
CC(NCC1CCN(CCO)CC1)c1ccc(F)c(Cl)c1 (stereo not drawn) [DDD01073649] | 3.46 | 1.04 | 87 | 94.4 | 0.802 | 99.5 | 1900 | 91.9 | IC50 [1, 11]: 0.8 µM
Fc1ccc(C2(CNC3=NCCN3)CCCC2)cc1 [DDD01067448] | – | – | – | – | – | – | – | – | IC50 [1, 12]: 6.73 µM; IC50 [1, 13]: 1.43 µM; Emax [1, 14]: 88.3%; IC50 [1, 16]: 1.18 µM; Emax [1, 17]: 95.9%; IC50 [2, 18]: 3300 nM; Emax [2, 19]: 94.1%
CC(C)(C)C(=O)NCCNCc1ccc(Cl)c2cccnc12 [DDD01070293] | > 12.5 | 1.05 | 82 | 37.6 | 1.51 | 83.4 | 2250 | 64.4 | –
Cn1ccnc1CN(Cc1ccccn1)Cc1ccccc1Cl [DDD01058741] | 2.68 | 0.59 | 93.9 | 94.3 | 0.592 | 100 | 6140 | 83.5 | –
CCn1ccnc1CN1CCCC(CO)(Cc2cccc(Cl)c2)C1 (stereo not drawn) [DDD01258327] | – | – | – | – | – | – | – | – | IC50 [1, 12]: > 12.5 µM; IC50 [1, 13]: 2.14 µM; Emax [1, 14]: 81.2%; Emax [1, 15]: 38.3%; IC50 [1, 16]: 2.68 µM; Emax [1, 17]: 82.9%; IC50 [2, 18]: 3020 nM; Emax [2, 19]: 58.2%
Cc1cc(C)c(CNCC(O)c2ccc(F)c(F)c2)c(C)c1 (stereo not drawn) [DDD01065539] | 0.316 | 0.15 | 96.6 | 97.4 | 0.143 | 100 | 312 | 99.5 | –
CCCn1ccnc1CN1CCCC1c1ccccn1 (stereo not drawn) [DDD01250556] | 4.66 | 0.46 | – | 53.8 | 1.47 | 94.8 | 11900 | 68.5 | –
Clc1ccccc1C1(c2ccnc(C3CCCC3)n2)CCNCC1 [DDD01245610] | 4.17 | 0.49 | 87.3 | 92.8 | 0.755 | 98.9 | 3550 | 76.4 | IC50 [1, 11]: 0.76 µM
CC[C@H]1CN2CC[C@H]1C[C@@H]2CNCc1ccc(OC(F)(F)F)cc1 [DDD01025218] | 2.91 | 1.07 | 92.1 | 93 | > 1.39 | 100 | 4160 | 89.4 | –
Cc1ccccc1CNCc1cc(Cl)ccc1O [DDD01038246] | 11 | 0.64 | 92.4 | 69.3 | 5.6 | 89.5 | 2600 | 97.5 | –
CC(C)Nc1cc(-c2c[nH]nc2C2CCN(C(=O)C3CCC3)C2)ccn1 (stereo not drawn) [DDD01057307] | 4.05 | 0.23 | 94.3 | – | 1.42 | 95.8 | 7490 | 72 | –

— publication PMC7155171, “Probing the Open Global Health Chemical Diversity Library for Multistage-Active Starting Points for Next-Generation Antimalarials” (ACS Infectious Diseases, 2020)
